According to publication PMC10287695, “Non-covalent inhibitors of thioredoxin glutathione reductase with schistosomicidal activity in vivo” (Nature Communications, 2023):
“And” between values parts separate entries of the source, which are not always exact repeats. Equal values may be shown once. Read-outs that look alike come from different tables or passages of the source. Marks after values point to notes of the source that are not given here.

Key:
S. mansoni adult worms [1] = assay: GSH/GSSG ratio in ex vivo adult worms; type: cell-based; settings: for Reduction (%) in GSH/GSSG ratio: third data set; for % Ratio GSH/GSSG: 0hr = 100; for Decrease (%) in GSH/GSSG ratio: adult worms, 3 h exposure to compounds at 50 μM
Description: We assessed GSH/GSSG levels experimentally by treating S. mansoni adult worms with 50 µM of compounds, or respective controls 5 µM Auranofin, 50 µM PZQ or 50 µM MZM and 0.01% DMSO for 3 h. Worm homogenate was prepared by washing three times with PBS to remove residual compounds and ten volumes of ice cold 5% sulfosalicylic acid was added. Worms were manually homogenized on ice using VWR Pellet Mixer Adaptor. The worm suspension was centrifuged at 14000 × g, 4 °C for 10 min and the acid supernatants transferred. An equal volume of ice-cold neutralization buffer (500 mM HEPES, pH 8.0) was added to the acid supernatants.
GSH/GSSG assay was performed by diluting the acid supernatant (5-fold) with ice-cold dilution buffer (250 mM HEPES, pH 7.5). Using white opaque luminescence plate on ice, 25 µl of the diluted worm acid supernatant was added each well in triplicates. Total glutathione lysis reagent and GSSG lysis reagent, which contains alkylating agent N-ethylmaleimide (25 mM) were prepared following manufactures protocol and added to respective wells along with blank for background. Total glutathione lysis reagent or oxidized glutathione lysis reagent (25 µl) was added to respective wells containing worm acid supernatants and the plate was shaken for 5 min. Luciferin generation reagent (LGR) (50 µl) was added to all wells, briefly shaken and incubated at room temperature for 30 min. Luciferin detection reagent (LDR) (100 µl) was added to all wells, briefly shaken and incubated for 15 min at room temperature and the luminescence measured using microplate imager (BioTek Cytation3). GSH/GSSH ratio for DMSO control and compounds were calculated using (Net DMSO total glutathione RFU) – (Net DMSO GSSG RFU)/ (Net DMSO GSSG RFU)/2 and (Net inhibitor total glutathione RFU) – (Net inhibitor GSSG RFU)/ (Net inhibitor GSSG RFU)/2 respectively.

Human GR = biological target: T1, Human GR (Homo sapiens, UniProt P00390); assay: Human GR enzyme inhibition (GSSG reduction, NADPH oxidation); type: biochemical; settings: for inhibition at 15 µM / inhibition at 30 µM / inhibition at 66.7 µM: hGR, read-out: % inhibition; for inhibition at 15 µM: compound 15 µM; for inhibition at 30 µM: compound 30 µM; for inhibition at 66.7 µM: compound 66.7 µM
T1 construct: made in house
T1 sequence (P00390 44-522): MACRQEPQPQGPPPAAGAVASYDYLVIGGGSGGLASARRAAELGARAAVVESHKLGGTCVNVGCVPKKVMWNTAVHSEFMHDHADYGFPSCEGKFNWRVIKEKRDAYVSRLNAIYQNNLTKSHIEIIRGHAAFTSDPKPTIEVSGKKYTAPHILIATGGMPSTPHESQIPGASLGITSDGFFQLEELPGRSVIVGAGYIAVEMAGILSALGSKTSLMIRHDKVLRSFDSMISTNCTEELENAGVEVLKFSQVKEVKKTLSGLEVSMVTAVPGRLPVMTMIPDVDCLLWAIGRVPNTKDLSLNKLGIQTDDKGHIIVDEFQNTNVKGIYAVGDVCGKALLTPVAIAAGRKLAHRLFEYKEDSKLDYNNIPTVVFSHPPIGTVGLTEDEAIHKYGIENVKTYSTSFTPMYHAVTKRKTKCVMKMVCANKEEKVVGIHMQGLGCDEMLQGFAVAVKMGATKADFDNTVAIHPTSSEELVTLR

S. mansoni adult worms [2] = assay: Schistosomicidal activity ex vivo, adult worms (Cell Titer Glo), alone or with channel blockers; type: cell-based; settings: for LD50 ex vivo S. mansoni adult: 24 h exposure, compound alone
Description: Three-week old, female Swiss-Webster mice obtained from the Charles River were housed in the Comparative Research Center of Rush University Medical Center. Mice were infected by percutaneous tail exposure to about 200 S. mansoni or 50 S. japonicum cercaria for adult worms and about 1000 cercaria for juvenile S. mansoni worms through natural transdermal penetration of the cercariae for 1 h[81].
DMSO formulated compounds were diluted with phenol red free M199 medium or RPMI medium for NTS or juvenile and adult worms, respectively, at <1% DMSO final concentrations. NTS, juvenile and adult worms from overnight cultures were tested against compounds in triplicate. Controls were treated with DMSO alone or 5 µM AF as a positive control in appropriate medium. […] Schistosome viabilities in the presence of the compounds were assessed using this formula: % Viability = Averages of Test / Averages of DMSO Control x 100.

[3] = 1 hr, third data set (r147-159), 0hr 72.45
[4] = 1 hr, third data set (r147-159)
[5] = 1 hr, (values given as fraction)
[6] = 3 hr, third data set (r147-159), 0hr 72.45
[7] = 3 hr, third data set (r147-159)
[8] = 3 hr, (values given as fraction)
[9] = Schistosoma mansoni, S. mansoni adult worms, Conc. 5 µM, read-out: % viability

Row | Compound | Reduction (%) in GSH/GSSG ratio (S. mansoni adult worms [1]; 1 hr) [%] | Ratio GSH/GSSG (S. mansoni adult worms [1]; [3]) | % Ratio GSH/GSSG (S. mansoni adult worms [1]; [4]) [%] | Reduction (%) in GSH/GSSG ratio (S. mansoni adult worms [1]; [5]) [%] | Reduction (%) in GSH/GSSG ratio (S. mansoni adult worms [1]; 3 hr) [%] | Ratio GSH/GSSG (S. mansoni adult worms [1]; [6]) | % Ratio GSH/GSSG (S. mansoni adult worms [1]; [7]) [%] | Reduction (%) in GSH/GSSG ratio (S. mansoni adult worms [1]; [8]) [%] | Decrease (%) in GSH/GSSG ratio (S. mansoni adult worms [1]) [%] | Human GR (inhibition at 66.7 µM) (Human GR) | inhibition at 15 µM (Human GR; 15 minutes pre-incubation) [%] | inhibition at 30 µM (Human GR; 15 minutes pre-incubation) [%] | inhibition at 66.7 µM (Human GR; 15 minutes pre-incubation) [%] | inhibition at 15 µM (Human GR; 6 hours pre-incubation) [%] | inhibition at 30 µM (Human GR; 6 hours pre-incubation) [%] | inhibition at 66.7 µM (Human GR; 6 hours pre-incubation) [%] | LD50 ex vivo S. mansoni adult (S. mansoni adult worms [2]) | viability at 5 µM (S. mansoni adult worms [2]; [9]) [%] | other results
1 | CC1C(NCc2cn(C3OCC(O)C(O)C3O)c3ccccc23)CC2CC1C2(C)C (centres unmarked) [Compound 9] | 1.8641 | 71.10 | 98.1359 | 0.0186 | 10.4658 | 64.87 | 89.5342 | 0.10 | 9 | n.i. | -0.142 | -2.5 | -1.69 | -0.844 | -1.45 | -3.11 | >100^a µM and >100 µM | – | Ratio GSH/GSSG (S. mansoni adult worms [1]; 1 hr, second data set (r136-144), baseline 63.5617, DMSO 63.4928): 62.1962; Ratio GSH/GSSG (S. mansoni adult worms [1]; 3 hr, second data set (r136-144), baseline 63.5617, DMSO 203.124): 55.0997; viability at 5 µM (S. mansoni adult worms [2]; Schistosoma mansoni, S. mansoni adult worms, 5 µM, relative to Worm + RPMI control, read-out: % viability): 99.2%; viability at 15 µM (S. mansoni adult worms [2]; Schistosoma mansoni, S. mansoni adult worms, 15 µM, relative to Worm + RPMI control, read-out: % viability): 91.1%; viability at 30 µM (S. mansoni adult worms [2]; Schistosoma mansoni, S. mansoni adult worms, 30 µM, relative to Worm + RPMI control, read-out: % viability): 88.8%; viability at 50 µM (S. mansoni adult worms [2]; Schistosoma mansoni, S. mansoni adult worms, 50 µM, relative to Worm + RPMI control, read-out: % viability): 83.3%; viability at 100 µM (S. mansoni adult worms [2]; Schistosoma mansoni, S. mansoni adult worms, 100 µM, relative to Worm + RPMI control, read-out: % viability): 78.4%
2 | C#CCN(Cc1nc(-c2ccccc2)oc1C)[C@@H]1C[C@@H]2C[C@H]([C@H]1C)C2(C)C [Compound 6] | 3.259 | 70.09 | 96.7414 | 0.0326 | 8.6517 | 66.18 | 91.3483 | 0.09 | 32 | n.i. | -0.749 | – | -0.295 | -0.648 | – | -0.21 | 15.7 ± 0.64 µM | 88.5 | viability at 15 µM (S. mansoni adult worms [2]; Schistosoma mansoni, S. mansoni adult worms, Conc. 15 µM, read-out: % viability): 50.6%; viability at 30 µM (S. mansoni adult worms [2]; Schistosoma mansoni, S. mansoni adult worms, Conc. 30 µM, read-out: % viability): 42%; viability at 50 µM (S. mansoni adult worms [2]; Schistosoma mansoni, S. mansoni adult worms, Conc. 50 µM, read-out: % viability): 23.3%
3 | Cc1oc(-c2ccc3c(c2)OCO3)nc1CN[C@@H]1C[C@@H]2C[C@H]([C@H]1C)C2(C)C [Compound 1] | 50.9919 | 35.51 | 49.0081 | 0.5099 | 78.3034 | 15.72 | 21.6966 | 0.78 | 75 | n.i. | -1.22 | -0.832 | – | -0.519 | -1.06 | – | 12.3 ± 1.30 µM | 77.3 | viability at 10 µM (S. mansoni adult worms [2]; Schistosoma mansoni, S. mansoni adult worms, Conc. 10 µM, read-out: % viability): 58.4%; viability at 25 µM (S. mansoni adult worms [2]; Schistosoma mansoni, S. mansoni adult worms, Conc. 25 µM, read-out: % viability): 0.888%; viability at 35 µM (S. mansoni adult worms [2]; Schistosoma mansoni, S. mansoni adult worms, Conc. 35 µM): 0.238%
